Experimental data published in patent publication US11485736B2 (KSQ Therapeutics, Inc., priority 2018, dated 2022).
Like-named read-outs stand apart in the source and are kept apart here.

Tests used:
[1] = ADME solubility determination at pH 2.0 and pH 7.4; type: physicochemical; conditions: aqueous buffer, thermodynamic from solid, LC-MS/MS
Summary of the method: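 Dried residues of 10 mM DMSO stocks were shaken in PBS pH 7.4 or pH 2.0 for 24 hours at 25° C. and 1,100 rpm. After centrifugation, supernatants were quantified by LC-MS/MS against a standard of known concentration, applying a dilution factor.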

[2] = Liver microsomal stability, human liver microsomes; type: in vitro ADME; conditions: 1 μM compound, NADPH, read-out: t1/2 (min) in HLM
Summary of the method: (§1)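 Compound (1 μM final) was incubated with prewarmed human or rat liver microsomes (1 mg/mL in 100 mM phosphate master mix) plus NADPH; aliquots at 0.5–30 minutes were quenched in cold acetonitrile and quantified by LC-MS/MS. Half-life came from the ln(% remaining) versus time slope, converted to CLint (μL/min/mg prot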

[3] = Liver microsomal stability, rat liver microsomes; type: in vitro ADME; conditions: 1 μM compound, NADPH, read-out: t1/2 (min) in RLM
Summary of the method: as §1

[4] = PBS pH 2.0, shaken at 25° C. for 24 hours, read-out: Solubility at pH 2.0
[5] = PBS pH 7.4, shaken at 25° C. for 24 hours, read-out: Solubility at pH 7.4

Row | SMILES | solubility at 24 h [1, 4] [µM] | solubility at 24 h [1, 5] [µM] | half-life at 1 μM [2] [min] | half-life at 1 μM [3] [min]
1 | Cc1cc(C(F)(F)F)nn1-c1ccc(Cn2ncc3cnc(-c4ccccc4C(C)C)nc32)cc1 [Example 23] | < 10 | < 10 | > 25 | < 25
2 | CCn1cc(C(F)(F)F)nc1-c1ccc([C@H](C)n2ncc3cnc(-c4c(OC)ncnc4C(C)C)nc32)cc1F [Example 118] | < 10 | < 10 | > 25 | < 25
3 | COc1nc(C)c(-c2ncc3cnn(Cc4ccc(-c5nc(C(F)(F)F)cn5C)cc4)c3n2)c(OC)n1 [Example 111] | > 10 | < 10 | < 25 | > 25
4 | COc1ncnc(C2CC2)c1-c1ncc2nc(C3CC3)n(Cc3ccc(-n4nc(C(F)(F)F)cc4C)cc3)c2n1 [Example 213] | < 10 | < 10 | > 25 | > 25
5 | COc1ncnc(C2CC2)c1-c1ncc2cnn(Cc3ccc(-n4nc(C(F)(F)F)cc4N(C)C)cc3)c2n1 [Example 121] | < 10 | < 10 | < 25 | < 25
6 | COc1ncnc(C2CC2)c1-c1ncc2c(OC)nn([C@@H](C)c3ccc(-c4nc(C(F)(F)F)c(Br)n4C)cc3)c2n1 [Example 188, (S)-1-(1-(4-(5-bromo-1-methyl-4-(trifluoromethyl)-1H-imidazol-2-yl)phenyl)ethyl)-6-(4-cyclopropyl-6-methoxypyrimidin-5-yl)-3-methoxy-1H-pyrazolo[3,4-d]pyrimidine] | < 10 | < 10 | > 25 | > 25
7 | COc1ncnc(C2CC2)c1-c1ncc2c(OC)nn([C@@H](C)c3ccc(-c4nc(C(F)(F)F)cn4C(C)C)cc3)c2n1 [Example 181] | > 10 | < 10 | > 25 | > 25
8 | CCn1cc(C(F)(F)F)nc1-c1ccc(Cn2ncc3cnc(-c4c(OC(F)F)ncnc4C4CC4)nc32)cc1 [Example 61] | < 10 | < 10 | > 25 | < 25
9 | CCn1cc(C(F)(F)F)nc1-c1ccc(Cn2ncc3cnc(-c4c(OC)cnn4C4CCC4)nc32)cc1 [Example 84] | < 10 | < 10 | < 25 | < 25
10 | COc1ncnc(C2CC2)c1-c1ncc2nnn(Cc3ccc(-c4nc(C(F)(F)F)cn4C)cc3)c2n1 [Example 215, 5-(4-cyclopropyl-6-methoxypyrimidin-5-yl)-3-(4-(1-methyl-4-(trifluoromethyl)-1H-imidazol-2-yl)benzyl)-3H-[1,2,3]triazolo[4,5-d]pyrimidine] | > 10 | > 10 | > 25 | < 25
11 | Cn1cc(C(F)(F)F)nc1-c1ccc(Cn2ncc3cnc(-c4c(OS(=O)(=O)C(F)(F)F)ncnc4C4CC4)nc32)cc1 [Example 160, 6-Cyclopropyl-5-(1-(4-(1-methyl-4-(trifluoromethyl)-1H-imidazol-2-yl)benzyl)-1H-pyrazolo[3,4-d]pyrimidin-6-yl)pyrimidin-4-yl trifluoromethanesulfonate] | < 10 | < 10 | > 25 | > 25
12 | CC(C)c1c(F)cccc1-c1ncc2cnn(Cc3ccc(-c4nc(C(F)(F)F)cn4C)cc3)c2n1 [Example 10, 6-(3-fluoro-2-isopropylphenyl)-1-(4-(1-methyl-4-(trifluoromethyl)-1H-imidazol-2-yl)benzyl)-1H-pyrazolo[3,4-d]pyrimidine] | < 10 | < 10 | < 25 | < 25
13 | COc1ncnc(C2CC2)c1-c1ncc2cnn(Cc3ccc(-n4nc(C(F)F)cc4C)cc3)c2n1 [Example 50] | < 10 | < 10 | > 25 | > 25
14 | COc1ncnc(C2CC2)c1-c1ncc2cnn([C@H]3CCc4cc(-c5nc(C(F)(F)F)cn5C(C)C)ccc43)c2n1 [Example 173, (S)-6-(4-cyclopropyl-6-methoxypyrimidin-5-yl)-1-(5-(1-isopropyl-4-(trifluoromethyl)-1H-imidazol-2-yl)-2,3-dihydro-1H-inden-1-yl)-1H-pyrazolo[3,4-d]pyrimidine] | < 10 | < 10 | > 25 | > 25
15 | COc1ncnc(C2CC2)c1-c1ncc2cnn([C@@H](C)c3ccc(-c4nc(C(F)(F)F)cn4C(C)C)cc3)c2n1 [Example 97] | > 10 | < 10 | > 25 | > 25
16 | COc1ncnc(C)c1-c1ncc2cnn(Cc3ccc(-c4nc(C(F)(F)F)cn4C)cc3)c2n1 [Example 33] | > 10 | > 10 | > 25 | > 25
17 | COc1ncnc(C2CC2)c1-c1ncc2cnn(Cc3ccc(-n4nc(C(F)(F)F)cc4C)cc3)c2n1 [Example 27] | < 10 | < 10 | > 25 | > 25
18 | CCn1cc(C#N)nc1-c1ccc(Cn2ncc3cnc(-c4c(OC)ncnc4C4CC4)nc32)cc1 [Example 148, 2-(4-((6-(4-cyclopropyl-6-methoxypyrimidin-5-yl)-1H-pyrazolo[3,4-d]pyrimidin-1-yl)methyl)phenyl)-1-ethyl-1H-imidazole-4-carbonitrile] | < 10 | < 10 | < 25 | < 25
19 | COc1ncnc(C2CC2)c1-c1ncc2cnn(Cc3ccc(-c4nc(C(F)(F)F)c(Br)n4C(C)C)cc3)c2n1 [Example 162] | < 10 | < 10 | > 25 | > 25
20 | COc1ncnc(C2CC2)c1-c1ncc2cnn(Cc3ccc(-c4nc(C(F)(F)F)cn4C(C)C)c(F)c3)c2n1 [Example 19] | > 10 | > 10 | > 25 | > 25
21 | CCn1cc(C(F)(F)F)nc1-c1ccc(Cn2nc(SC)c3cnc(-c4c(OC)ncnc4C4CC4)nc32)cc1 [Example 190, 6-(4-cyclopropyl-6-methoxypyrimidin-5-yl)-1-(4-(1-ethyl-4-(trifluoromethyl)-1H-imidazol-2-yl)benzyl)-3-(methylthio)-1H-pyrazolo[3,4-d]pyrimidine] | < 10 | < 10 | < 25 | < 25
22 | CSc1ncnc(C)c1-c1ncc2cnn(Cc3ccc(-n4nc(C(F)(F)F)cc4C)cc3)c2n1 [Example 46] | < 10 | < 10 | < 25 | < 25
23 | COc1ncnc(C2CC2)c1-c1ncc2cnn(Cc3ccc(-c4nc(C(F)(F)F)c5n4CCNC5)cc3)c2n1 [Example 136, 6-(4-Cyclopropyl-6-methoxypyrimidin-5-yl)-1-(4-(1-(trifluoromethyl)-5,6,7,8-tetrahydroimidazo[1,5-a]pyrazin-3-yl)benzyl)-1H-pyrazolo[3,4-d]pyrimidine] | > 10 | < 10 | < 25 | < 25
24 | CCc1nc2cnc(-c3c(OC)ncnc3C3CC3)nc2n1Cc1ccc(-c2nc(C(F)(F)F)cn2C(C)C)cc1 [Example 205, 2-(4-cyclopropyl-6-methoxypyrimidin-5-yl)-8-ethyl-9-(4-(1-isopropyl-4-(trifluoromethyl)-1H-imidazol-2-yl)benzyl)-9H-purine] | > 10 | > 10 | > 25 | > 25
25 | COc1ncnc(C(C)(C)C)c1-c1ncc2cnn(Cc3ccc(-c4nc(C(F)(F)F)cn4C)cc3)c2n1 [Example 109] | < 10 | < 10 | < 25 | < 25
26 | COc1ncnc(C2CC2)c1-c1ncc2cnn(Cc3ccc(-n4nc(C(F)(F)F)cc4OCCO)cc3)c2n1 [Example 78] | < 10 | < 10 | > 25 | > 25
27 | CCn1c(-c2ccc(Cn3ncc4cnc(-c5c(OC)ncnc5C5CC5)nc43)cc2)nc(C(F)(F)F)c1OC [Example 164, 6-(4-cyclopropyl-6-methoxypyrimidin-5-yl)-1-(4-(1-ethyl-5-methoxy-4-(trifluoromethyl)-1H-imidazol-2-yl)benzyl)-1H-pyrazolo[3,4-d]pyrimidine] | > 10 | < 10 | < 25 | < 25
28 | COc1ncnc(C2CC2)c1-c1ncc2cnn([C@H](C)c3ccc(-c4nc(C(F)(F)F)cn4C(C)C)cc3)c2n1 [Example 98] | > 10 | > 10 | > 25 | < 25
29 | COc1ncnc(C2CC2)c1-c1ncc2cnn(Cc3ccc(-n4nc(C(F)(F)F)cc4CO)cc3)c2n1 [Example 198, (1-(4-((6-(4-cyclopropyl-6-methoxypyrimidin-5-yl)-1H-pyrazolo[3,4-d]pyrimidin-1-yl)methyl)phenyl)-3-(trifluoromethyl)-1H-pyrazol-5-yl)methanol] | < 10 | < 10 | > 25 | > 25
